Test results from patent US8969565B2, “Imidazo[1,2-b]pyridazine-based compounds, compositions comprising them, and methods of their use” (Lexicon Pharmaceuticals, Inc., priority 2012, dated 2015).

Biological target: T1, AAK1 (Homo sapiens, UniProt Q2M2I8)
T1 construct: HA; expressed in transfected cells; host or cells: HEK293F
Assay: HEK281 cell-based assay (phospho-mu2 Western blot in transfected HEK293F cells)
Conditions: 3 hours incubation, read-out: CBA IC50
In short: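 After 3 hours at 37° C. with compound (five 3-fold-spaced concentrations, DMEM+0.5% FBS), transiently transfected HEK293F cells expressing full-length human AAK1 and Flag-tagged mu2 were lysed. mu2 phosphorylation was read by anti-phospho-mu2 immunoblot, normalized against total mu2 by anti-Flag blot.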

T1 sequence (Q2M2I8 1-863 isoform Q2M2I8-2): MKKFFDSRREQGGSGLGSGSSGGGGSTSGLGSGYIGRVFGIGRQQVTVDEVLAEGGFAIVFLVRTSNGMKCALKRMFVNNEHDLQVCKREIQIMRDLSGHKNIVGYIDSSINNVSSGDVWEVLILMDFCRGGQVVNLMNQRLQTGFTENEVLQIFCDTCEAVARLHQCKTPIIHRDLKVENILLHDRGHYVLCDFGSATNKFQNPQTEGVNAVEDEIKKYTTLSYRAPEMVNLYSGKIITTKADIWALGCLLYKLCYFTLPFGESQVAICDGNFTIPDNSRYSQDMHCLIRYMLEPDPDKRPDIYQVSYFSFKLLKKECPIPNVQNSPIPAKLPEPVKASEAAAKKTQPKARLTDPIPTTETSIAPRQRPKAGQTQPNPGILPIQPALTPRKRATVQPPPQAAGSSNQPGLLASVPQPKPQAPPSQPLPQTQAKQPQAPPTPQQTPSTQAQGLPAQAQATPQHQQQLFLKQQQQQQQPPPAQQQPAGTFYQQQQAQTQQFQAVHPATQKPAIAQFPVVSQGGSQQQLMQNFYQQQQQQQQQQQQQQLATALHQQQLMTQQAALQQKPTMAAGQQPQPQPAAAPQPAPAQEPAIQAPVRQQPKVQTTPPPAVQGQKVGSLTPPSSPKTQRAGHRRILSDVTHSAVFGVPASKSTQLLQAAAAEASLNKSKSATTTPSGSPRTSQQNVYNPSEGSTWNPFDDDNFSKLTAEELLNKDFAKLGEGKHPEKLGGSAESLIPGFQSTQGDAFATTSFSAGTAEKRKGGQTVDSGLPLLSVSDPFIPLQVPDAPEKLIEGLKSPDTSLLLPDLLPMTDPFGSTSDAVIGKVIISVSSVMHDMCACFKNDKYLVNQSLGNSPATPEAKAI

SMILES	IC50 [nM]
CC(C)(C)COC(=O)N1CCC[C@H]1CNc1ccc2ncc(Br)n2n1 [(S)-neopentyl 2-(((3-bromoimidazo[1,2-b]pyridazin-6-yl)amino)methyl)pyrrolidine-1-carboxylate]	≤ 100
COc1ccccc1-c1cnc2ccc(NC[C@@H]3CCCN3C(=O)OC(C)(C)C)nn12 [(S)-tert-butyl 2-(((3-(2-methoxyphenyl)imidazo[1,2-b]pyridazin-6-yl)amino)methyl)pyrrolidine-1-carboxylate]	≤ 10
COc1cnccc1-c1cnc2ccc(NC[C@@H]3CCCCN3C(=O)OC(C)(C)C)nn12 [(S)-tert-butyl 2-(((3-(3-methoxypyridin-4-yl)imidazo[1,2-b]pyridazin-6-yl)amino)methyl)piperidine-1-carboxylate]	≤ 100
CC(C)(C)OC(=O)N1CCCC[C@H]1CNc1ccc2ncc(-c3ccc(CN)cc3)n2n1 [(S)-tert-butyl 2-(((3-(4-(aminomethyl)phenyl)imidazo[1,2-b]pyridazin-6-yl)amino)methyl)piperidine-1-carboxylate]	≤ 10
CC(C)(C)OC(=O)N1CCCC[C@H]1CNc1ccc2ncc(-c3ccncc3)n2n1 [(S)-tert-butyl 2-(((3-(pyridin-4-yl)imidazo[1,2-b]pyridazin-6-yl)amino)methyl)piperidine-1-carboxylate]	≤ 100
CC(C)(C)OC(=O)N1CCC[C@H]1CNc1ccc2ncc(C(F)(F)F)n2n1 [(S)-tert-butyl 2-(((3-(trifluoromethyl)imidazo[1,2-b]pyridazin-6-yl)amino)methyl)pyrrolidine-1-carboxylate]	≤ 100
CC(C)(C)OC(=O)N1CCC[C@H]1CNc1ccc2ncc(Br)n2n1 [(S)-tert-butyl 2-(((3-bromoimidazo[1,2-b]pyridazin-6-yl)amino)methyl)pyrrolidine-1-carboxylate]	≤ 100
CC(C)(C)OC(=O)N1CCC[C@H]1CNc1ccc2ncc(Cl)n2n1 [(S)-tert-butyl 2-(((3-chloroimidazo[1,2-b]pyridazin-6-yl)amino)methyl)pyrrolidine-1-carboxylate]	≤ 100
CCc1cnc2ccc(NC[C@@H]3CCCN3C(=O)OC(C)(C)C)nn12 [(S)-tert-butyl 2-(((3-ethylimidazo[1,2-b]pyridazin-6-yl)amino)methyl)pyrrolidine-1-carboxylate]	≤ 100
CC(C)(C)OC(=O)N1CCC[C@H]1CNc1ccc2ncc(I)n2n1 [(S)-tert-butyl 2-(((3-iodoimidazo[1,2-b]pyridazin-6-yl)amino)methyl)pyrrolidine-1-carboxylate]	≤ 10
COc1cnccc1-c1cnc2ccc(NC[C@@H]3CCN(C(=O)OC(C)(C)C)C3)nn12 [(S)-tert-butyl 3-(((3-(3-methoxypyridin-4-yl)imidazo[1,2-b]pyridazin-6-yl)amino)methyl)pyrrolidine-1-carboxylate]	≤ 1000
CC(C)(C)OC(=O)N1CC[C@@H](CNc2ccc3ncc(-c4ccc(CN)cc4)n3n2)C1 [(S)-tert-butyl 3-(((3-(4-(aminomethyl)phenyl)imidazo[1,2-b]pyridazin-6-yl)amino)methyl)pyrrolidine-1-carboxylate]	≤ 100
CC(C)(C)OC(=O)N1CC[C@@H](CNc2ccc3ncc(Br)n3n2)C1 [(S)-tert-butyl 3-(((3-bromoimidazo[1,2-b]pyridazin-6-yl)amino)methyl)pyrrolidine-1-carboxylate]	≤ 1000
CN(CCNc1ccc2ncc(-c3ccc(C#N)cc3)n2n1)C(=O)CC(C)(C)C [N-(2-((3-(4-cyanophenyl)imidazo[1,2-b]pyridazin-6-yl)amino)ethyl)-N,3,3-trimethylbutanamide]	≤ 100
CN(CCNc1ccc2ncc(-c3ccc(C#N)cc3)n2n1)C(=O)C(C)(C)C [N-(2-((3-(4-cyanophenyl)imidazo[1,2-b]pyridazin-6-yl)amino)ethyl)-N-methylpivalamide]	≤ 100
COc1ncccc1-c1cnc2ccc(NCCOC3CCCC3)nn12 [N-(2-(cyclopentyloxy)ethyl)-3-(2-methoxypyridin-3-yl)imidazo[1,2-b]pyridazin-6-amine]	≤ 100
Fc1cnccc1-c1cnc2ccc(NCCOC3CCCC3)nn12 [N-(2-(cyclopentyloxy)ethyl)-3-(3-fluoropyridin-4-yl)imidazo[1,2-b]pyridazin-6-amine]	≤ 100
COc1cnccc1-c1cnc2ccc(NCCOC3CCCC3)nn12 [N-(2-(cyclopentyloxy)ethyl)-3-(3-methoxypyridin-4-yl)imidazo[1,2-b]pyridazin-6-amine]	≤ 1000
c1cc(C2CCCN2)ccc1-c1cnc2ccc(NCCOC3CCCC3)nn12 (stereo not shown) [N-(2-(cyclopentyloxy)ethyl)-3-(4-(pyrrolidin-2-yl)phenyl)imidazo[1,2-b]pyridazin-6-amine]	≤ 100
CCN(CC)CCNC(=O)c1ccc(-c2cnc3ccc(NCCOCC(C)C)nn23)cc1 [N-(2-(diethylamino)ethyl)-4-(6-((2-isobutoxyethyl)amino)imidazo[1,2-b]pyridazin-3-yl)benzamide]	≤ 100
CCN(CC)CCNC(=O)c1ccc(-c2cnc3ccc(NCCOC(C)C)nn23)cc1 [N-(2-(diethylamino)ethyl)-4-(6-((2-isopropoxyethyl)amino)imidazo[1,2-b]pyridazin-3-yl)benzamide]	≤ 100
CNCCNC(=O)c1ccc(-c2cnc3ccc(NCCCN(C)C(=O)C(C)(C)C)nn23)cc1 [N-(2-(methylamino)ethyl)-4-(6-((3-(N-methylpivalamido)propyl)amino)imidazo[1,2-b]pyridazin-3-yl)benzamide]	≤ 1000
COc1cnccc1-c1cnc2ccc(NCCOC(C)(C)C)nn12 [N-(2-(tert-butoxy)ethyl)-3-(3-methoxypyridin-4-yl)imidazo[1,2-b]pyridazin-6-amine]	≤ 100
CC(C)(C)OCCNc1ccc2ncc(-c3ccc(C4CCCN4)cc3)n2n1 (stereo not shown) [N-(2-(tert-butoxy)ethyl)-3-(4-(pyrrolidin-2-yl)phenyl)imidazo[1,2-b]pyridazin-6-amine]	≤ 100
CC(C)(C)OCCCNc1ccc2ncc(-c3ccc(C(=O)NCCN)cc3)n2n1 [N-(2-aminoethyl)-4-(6-((3-(tert-butoxy)propyl)amino)imidazo[1,2-b]pyridazin-3-yl)benzamide]	≤ 1000
COc1ccccc1-c1cnc2ccc(NCCOCC(C)C)nn12 [N-(2-isobutoxyethyl)-3-(2-methoxyphenyl)imidazo[1,2-b]pyridazin-6-amine]	≤ 1000
COc1cnccc1-c1cnc2ccc(NCCOCC(C)C)nn12 [N-(2-isobutoxyethyl)-3-(3-methoxypyridin-4-yl)imidazo[1,2-b]pyridazin-6-amine]	≤ 100

Second part, the compound after the results:

IC50 [nM]	SMILES
≤ 100	CCCCNc1ccc2ncc(-c3ccc4cnccc4c3)n2n1 [Butyl-(3-isoquinolin-6-yl-imidazo[1,2-b]pyridazin-6-yl)amine]
≤ 100	CCOC(=O)CCCNc1ccc2ncc(-c3ccc(C(C)=O)s3)n2n1 [Ethyl 4-((3-(5-acetylthiophen-2-yl)imidazo[1,2-b]pyridazin-6-yl)amino)butanoate]
≤ 100	CN(CCNc1ccc2ncc(-c3ccc(CN)cc3)n2n1)c1ccccc1 [N1-(3-(4-(aminomethyl)phenyl)imidazo[1,2-b]pyridazin-6-yl)-N2-methyl-N2-phenylethane-1,2-diamine]
≤ 100	CN(CCCNc1ccc2ncc(-c3ccc(CN)cc3)n2n1)c1ccccc1 [N1-(3-(4-(aminomethyl)phenyl)imidazo[1,2-b]pyridazin-6-yl)-N3-methyl-N3-phenylpropane-1,3-diamine]
≤ 1000	CN(CCCNc1ccc2ncc(-c3ccc(CN)s3)n2n1)c1ccccc1 [N1-(3-(5-(aminomethyl)thiophen-2-yl)imidazo[1,2-b]pyridazin-6-yl)-N3-methyl-N3-phenylpropane-1,3-diamine]
≤ 1000	CC(C)(C)CCNc1ccc2ncc(-c3ccc(CNCCN)cc3)n2n1 [N1-(4-(6-((3,3-dimethylbutyl)amino)imidazo[1,2-b]pyridazin-3-yl)benzyl)ethane-1,2-diamine]
≤ 1000	CCCCNc1ccc2ncc(-c3ccc(CNCCN)cc3)n2n1 [N1-(4-(6-(butylamino)imidazo[1,2-b]pyridazin-3-yl)benzyl)ethane-1,2-diamine]
≤ 1000	CCCCNc1ccc2ncc(-c3ccc(CNCCCN)cc3)n2n1 [N1-(4-(6-(butylamino)imidazo[1,2-b]pyridazin-3-yl)benzyl)propane-1,3-diamine]
≤ 1000	CC(C)(C)CCNc1ccc2ncc(-c3ccc(C(=O)NCCN)cc3)n2n1 [N-(2-aminoethyl)-4-(6-((3,3-dimethylbutyl)amino)imidazo[1,2-b]pyridazin-3-yl)benzamide]
≤ 1000	NCCNC(=O)c1ccc(-c2cnc3ccc(NCCCc4ccccc4)nn23)cc1 [N-(2-aminoethyl)-4-(6-((3-phenylpropyl)amino)imidazo[1,2-b]pyridazin-3-yl)benzamide]
≤ 100	CCCCNc1ccc2ncc(-c3ccc(C(=O)NCCN)c(F)c3)n2n1 [N-(2-aminoethyl)-4-(6-(butylamino)imidazo[1,2-b]pyridazin-3-yl)-2-fluorobenzamide]
≤ 1000	CCCCNc1ccc2ncc(-c3ccc(C(=O)NCCN)c(OC)c3)n2n1 [N-(2-aminoethyl)-4-(6-(butylamino)imidazo[1,2-b]pyridazin-3-yl)-2-methoxybenzamide]
≤ 1000	CCCCNc1ccc2ncc(-c3ccc(C(=O)NCCN)cc3F)n2n1 [N-(2-aminoethyl)-4-(6-(butylamino)imidazo[1,2-b]pyridazin-3-yl)-3-fluorobenzamide]
≤ 1000	CCCCNc1ccc2ncc(-c3ccc(C(=O)NCCN)cc3)n2n1 [N-(2-aminoethyl)-4-(6-(butylamino)imidazo[1,2-b]pyridazin-3-yl)benzamide]
≤ 1000	CCCCNc1ccc2ncc(-c3ccc(C(=O)NCC(C)N)cc3)n2n1 (stereo not shown) [N-(2-aminopropyl)-4-(6-(butylamino)imidazo[1,2-b]pyridazin-3-yl)benzamide]
≤ 100	CCOc1ccccc1CCNc1ccc2ncc(-c3ccncc3OC)n2n1 [N-(2-ethoxyphenethyl)-3-(3-methoxypyridin-4-yl)imidazo[1,2-b]pyridazin-6-amine]
